For one assay, the target named is human truncated cGAS enzyme (147-522 human cGAS) (Homo sapiens (Human), UniProt Q8N884). In words: Quantification of cGAS protein inhibition (cGAMP formation measured by LC-MS/MS). Particulars: reported for the potential mixture in solution of co-existing tautomers and/or racemates. Format: biochemical. The procedure: A reagent buffer was prepared in filtered and autoclaved water according to the following: • 50 mM Tris-buffer pH 7.5 (1 M Tris-buffer pH 7.5, Invitrogen, Cat. No. 15567-027); • 50 mM NaCl (5 M NaCl, Sodium Chloride Solution, Sigma, 59222C-); • 5 mM MgCl2 (1 M MgCl2, Sigma, M1028); • 0.1 mM ZnCl2 (Zinc Chloride [7646-85-7], powder, Cell Culture Tested, Sigma, Z-0152); and • 0.001% Tween 20 (TWEEN 20, Sigma Aldrich, P1379-).
human truncated cGAS enzyme (147-522 human cGAS), sequence (Q8N884 147-522): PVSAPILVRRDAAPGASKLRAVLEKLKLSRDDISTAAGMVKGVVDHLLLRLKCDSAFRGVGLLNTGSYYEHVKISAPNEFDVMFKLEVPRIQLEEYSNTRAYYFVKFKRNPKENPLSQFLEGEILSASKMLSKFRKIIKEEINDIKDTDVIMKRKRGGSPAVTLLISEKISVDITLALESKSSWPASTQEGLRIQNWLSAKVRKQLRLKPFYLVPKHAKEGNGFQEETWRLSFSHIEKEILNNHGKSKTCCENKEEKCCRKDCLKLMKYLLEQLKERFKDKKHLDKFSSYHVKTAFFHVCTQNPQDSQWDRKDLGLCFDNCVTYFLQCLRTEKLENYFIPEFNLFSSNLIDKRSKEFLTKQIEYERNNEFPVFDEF
A buffer for the cGAS enzyme was prepared in filtered and autoclaved water according to the following: • 50 mM Tris-buffer pH 7.5; • 5 mM MgCl2; and • 0.001% Tween 20.
Compounds were dispensed to a […]. The human truncated cGAS enzyme (4.2 mg/mL 147-522 human cGAS, MW 43,909 g/mol) was stored in 50 mM Tris, 500 mM NaCl, 5% (v/v) glycerol at pH 8 and diluted in the cGAS buffer enzyme shortly before use. The enzyme solution was transferred into the reagent buffer to give a final concentration of 30 nM. The reaction was started by mixing the enzyme with ISD (a 45 bp double stranded DNA, MW 27,670 g/mol, 5 mM), GTP and ATP to a final concentration of 5 μM, 0.5 mM and 0.5 mM respectively in a final volume of 10 μl. The reaction plates were then centrifuged at 1000 rpm for 1 minute and incubated at room temperature for 1 h. After 1 h of incubation, [^5Ns]-2′3′-cGAMP to a final concentration of 200 nM and 30 μL of 100% acetonitrile/0.175% of TFA were added to the reaction mixture. The plates were centrifuged at 1000 rpm for 1 minute before being sealed for 3 seconds at 170° C. using a ThermoScientific sealer (ALPS™ 50V) and an aluminum sealing cover (Pierce Seal, 4titude, Product Code: 4TI-0531).
The concentration of cGAMP was measured on a LC-MS/MS system consisting of a THERMO Dionex Ultimate LC system with a high pressure pump, an autosampler, a column heating compartment (Reinach, Switzerland) and a SCIEX Triple Quad 5500 (Framingham, MA, USA) mass spectrometer for detection. The sample plates were centrifuged for 10 minutes at 2000 rpm. Up to three plates were placed in the autosampler for injection. An aliquot of 10 μL of each sample was injected on an XBridge BEH Amide 3.5 μm, 2.1×50 mm column (P/N 186004859) with an XBridge BEH Amide 5 μm 2.1×5 mm VanGuard Cartridge (P/N 186007760) pre-column (both WATERS, MA, USA) held at 40° C. An isocratic flow of 1.0 mL/min solvent (60% ACN, 8 mM ammonium acetate, 5 mM ammonium hydroxide, 0.04% acetic acid) was applied and sprayed into the ion source of the mass spectrometers. The MS parameters were optimized based on the properties of the compounds to be detected and run in positive multi-reaction mode (MRM) based on the mass transitions. LC and MS parameters were also optimized to allow for a sample-to-sample measuring time of approximately 75 sec and a run time of 8 hours per 384-well plate. All data were analyzed with Excel; and the dose response curves were generated using the auto fitting function of XLfit. The IC50 was determined by plotting the cGAMP concentration ratio (cGAMP divided by the internal standard [^15Ns]-2′3′-cGAMP) versus the concentration of compound.
In general, IC50 refers to the concentration at which inhibition is half-maximal. As to `COCC(c1nnc(-c2c(-n3ccnc3)c3cc(OC)c(Cl)c(F)c3n2C)[nH]1)N(C)C` (racemic) [Example 124, 1-(5-(6-chloro-7-fluoro-3-(1H-imidazol-1-yl)-5-methoxy-1-methyl-1H-indol-2-yl)-4H-1,2,4-triazol-3-yl)-2-methoxy-N,N-dimethylethan-1-amine], the IC50 came to 122 nM.

For the molecule `CNC(COC)c1nnc(-c2c(-n3ccnc3)c3cc(OC)c(Cl)c(F)c3n2C)[nH]1` (racemic) [Example 125, 1-(5-(6-chloro-7-fluoro-3-(1H-imidazol-1-yl)-5-methoxy-1-methyl-1H-indol-2-yl)-4H-1,2,4-triazol-3-yl)-2-methoxy-N-methylethan-1-amine], the IC50 was determined as 74 nM.

The same assay, now with this note: reported for the potential mixture of co-existing tautomers and/or racemates.
In the case of `COc1cc2c(-c3cn[nH]c3)c(-c3nnc(C(F)(F)F)[nH]3)n(C)c2c(F)c1Cl` [Example 1, 6-Chloro-7-fluoro-5-methoxy-1-methyl-3-(1H-pyrazol-4-yl)-2-(5-(trifluoromethyl)-4H-1,2,4-triazol-3-yl)-1H-indole], the concentration for half-maximal inhibition (IC50) is 74 nM.

Take `COc1cc2c(-c3cn[nH]c3)c(-c3nnc(C(=O)N(C)C)[nH]3)n(C)c2c(F)c1Cl` [Example 2, 5-(6-chloro-7-fluoro-5-methoxy-1-methyl-3-(1H-pyrazol-4-yl)-1H-indol-2-yl)-N,N-dimethyl-4H-1,2,4-triazole-3-carboxamide]: the IC50 worked out at 46 nM.

In the case of `COc1cc2c(-c3cn[nH]c3)c(-c3nnc(F)[nH]3)[nH]c2c(F)c1Cl` [Example 3, 6-chloro-7-fluoro-2-(5-fluoro-4H-1,2,4-triazol-3-yl)-5-methoxy-3-(1H-pyrazol-4-yl)-1H-indole], the IC50 worked out at 30 nM.

As for `COc1cc2c(-c3cn[nH]c3)c(-c3nnc(C(F)(F)F)[nH]3)[nH]c2c(F)c1Cl` [Example 4, 6-chloro-7-fluoro-5-methoxy-3-(1H-pyrazol-4-yl)-2-(5-(trifluoromethyl)-4H-1,2,4-triazol-3-yl)-1H-indole], the IC50 amounted to 33 nM.

Turning to `Clc1ccc2c(-c3cn[nH]c3)c(-c3nnc(Br)[nH]3)[nH]c2c1Cl` [Example 5, 2-(5-bromo-4H-1,2,4-triazol-3-yl)-6,7-dichloro-3-(1H-pyrazol-4-yl)-1H-indole], the half-inhibitory concentration (IC50) came out at 93 nM.

As for `N#Cc1cc2c(-c3cn[nH]c3)c(-c3nnc(C(F)(F)F)[nH]3)[nH]c2c(F)c1Cl` [Example 6, 6-chloro-7-fluoro-3-(1H-pyrazol-4-yl)-2-(5-(trifluoromethyl)-4H-1,2,4-triazol-3-yl)-1H-indole-5-carbonitrile], the IC50 turned out to be 152 nM.

Regarding `COCC(=O)c1nnc(-c2[nH]c3c(Cl)c(Cl)ccc3c2-c2cn[nH]c2)[nH]1` [Example 7, 1-(5-(6,7-dichloro-3-(1H-pyrazol-4-yl)-1H-indol-2-yl)-4H-1,2,4-triazol-3-yl)-2-methoxyethan-1-one], the IC50 turned out to be 30 nM.

As for `Cn1c(-c2nnc(C(F)(F)F)[nH]2)c(-c2cn[nH]c2)c2cc(C#N)c(Cl)c(F)c21` [Example 8, 6-chloro-7-fluoro-1-methyl-3-(1H-pyrazol-4-yl)-2-(5-(trifluoromethyl)-4H-1,2,4-triazol-3-yl)-1H-indole-5-carbonitrile], the IC50 was 134 nM.

On to `COCC(F)(F)c1nnc(-c2[nH]c3c(Cl)c(Cl)ccc3c2-c2cn[nH]c2)[nH]1` [Example 9, 6,7-dichloro-2-(5-(1,1-difluoro-2-methoxyethyl)-4H-1,2,4-triazol-3-yl)-3-(1H-pyrazol-4-yl)-1H-indole], for which the IC50 was 30 nM.

Take `COCC(F)c1nnc(-c2[nH]c3c(Cl)c(Cl)ccc3c2-c2cn[nH]c2)[nH]1` (centres unmarked) [Example 10, 6,7-dichloro-2-(5-(1-fluoro-2-methoxyethyl)-4H-1,2,4-triazol-3-yl)-3-(1H-pyrazol-4-yl)-1H-indole]: the IC50 worked out at 74 nM.

For the molecule `Cn1c(-c2nnc(C(F)(F)F)[nH]2)c(-c2cn[nH]c2)c2ccc(Cl)c(Cl)c21` [Example 12, 6,7-dichloro-1-methyl-3-(1H-pyrazol-4-yl)-2-(5-(trifluoromethyl)-4H-1,2,4-triazol-3-yl)-1H-indole], the IC50 was 48 nM.

For `FC(F)(F)Cc1nnc(-c2[nH]c3c(Cl)c(Cl)ccc3c2-c2cn[nH]c2)[nH]1` [Example 13, 6,7-dichloro-3-(1H-pyrazol-4-yl)-2-(5-(2,2,2-trifluoroethyl)-4H-1,2,4-triazol-3-yl)-1H-indole], the IC50 was 178 nM.

Regarding `Fc1ccc2c(-c3cn[nH]c3)c(-c3nnc(C(F)(F)F)[nH]3)[nH]c2c1F` [Example 14, 6,7-difluoro-3-(1H-pyrazol-4-yl)-2-(5-(trifluoromethyl)-4H-1,2,4-triazol-3-yl)-1H-indole], the IC50 came to 196 nM.

Take `OCCc1nnc(-c2[nH]c3c(Cl)c(Cl)ccc3c2-c2cn[nH]c2)[nH]1` [Example 15, 2-(5-(6,7-dichloro-3-(1H-pyrazol-4-yl)-1H-indol-2-yl)-4H-1,2,4-triazol-3-yl)ethan-1-ol]: the IC50 was determined as 188 nM.

Regarding `Fc1c(Cl)ccc2c(-c3cn[nH]c3)c(-c3nnc(C(F)(F)F)[nH]3)[nH]c12` [Example 16, 6-chloro-7-fluoro-3-(1H-pyrazol-4-yl)-2-(5-(trifluoromethyl)-4H-1,2,4-triazol-3-yl)-1H-indole], the IC50 worked out at 44 nM.

As to `COc1c(Cl)ccc2c(-c3cn[nH]c3)c(-c3nnc(C(F)(F)F)[nH]3)[nH]c12` [Example 17, 6-chloro-7-methoxy-3-(1H-pyrazol-4-yl)-2-(5-(trifluoromethyl)-4H-1,2,4-triazol-3-yl)-1H-indole], the concentration for half-maximal inhibition (IC50) was 1490 nM.

Regarding `FC(F)(F)c1nnc(-c2[nH]c3cc(Cl)c(Cl)cc3c2-c2cn[nH]c2)[nH]1` [Example 18, 5,6-dichloro-3-(1H-pyrazol-4-yl)-2-(5-(trifluoromethyl)-4H-1,2,4-triazol-3-yl)-1H-indole], the IC50 stood at 165 nM.

Consider `N#Cc1c(Cl)ccc2c(-c3cn[nH]c3)c(-c3nnc(C(F)(F)F)[nH]3)[nH]c12` [Example 19, 6-chloro-3-(1H-pyrazol-4-yl)-2-(5-(trifluoromethyl)-4H-1,2,4-triazol-3-yl)-1H-indole-7-carbonitrile], for which the IC50 stood at 150 nM.

Regarding `COc1cc2c(-c3cn[nH]c3)c(-c3nnc(C(F)(F)F)[nH]3)n(C)c2cc1Cl` [Example 20, 6-chloro-5-methoxy-1-methyl-3-(1H-pyrazol-4-yl)-2-(5-(trifluoromethyl)-4H-1,2,4-triazol-3-yl)-1H-indole], the IC50 was found to be 116 nM.

For `CCOC(=O)c1nnc(-c2[nH]c3c(Cl)c(Cl)ccc3c2-c2cn[nH]c2)[nH]1` [Example 21, ethyl 5-(6,7-dichloro-3-(1H-pyrazol-4-yl)-1H-indol-2-yl)-4H-1,2,4-triazole-3-carboxylate], the IC50 came out at 30 nM.

For the molecule `NC(=O)c1nnc(-c2[nH]c3c(Cl)c(Cl)ccc3c2-c2cn[nH]c2)[nH]1` [Example 22, 5-(6,7-dichloro-3-(1H-pyrazol-4-yl)-1H-indol-2-yl)-4H-1,2,4-triazole-3-carboxamide], the IC50 was found to be 30 nM.

Regarding `Cn1c(-c2nnc(C(F)(F)F)[nH]2)c(-c2cn[nH]c2)c2cc(Cl)c(Cl)cc21` [Example 23, 5,6-dichloro-1-methyl-3-(1H-pyrazol-4-yl)-2-(5-(trifluoromethyl)-4H-1,2,4-triazol-3-yl)-1H-indole], the IC50 was 112 nM.

As for `COc1cc2c(-c3cn[nH]c3)c(-c3nnc(C(F)(F)F)[nH]3)[nH]c2cc1Cl` [Example 24, 6-chloro-5-methoxy-3-(1H-pyrazol-4-yl)-2-(5-(trifluoromethyl)-4H-1,2,4-triazol-3-yl)-1H-indole], the IC50 stood at 69 nM.

Take `COc1cc2c(-c3cn[nH]c3)c(-c3nnc(C(F)(F)F)[nH]3)n(CCO)c2cc1Cl` [Example 25, 2-(6-chloro-5-methoxy-3-(1H-pyrazol-4-yl)-2-(5-(trifluoromethyl)-4H-1,2,4-triazol-3-yl)-1H-indol-1-yl)ethan-1-ol]: the IC50 came to 1430 nM.

The values are drawn from patent US12404261B2, “Compounds and compositions for treating conditions associated with cGAS” (Novartis AG, priority 2020, dated 2025).
